Results published in publication PMC9202104 (BMC Biology, 2022).

Experiments:
[1] = target: T1, ZIKV EDIII protein (Zika virus, UniProt A0A024B7W1); test: SPR binding to ZIKV EDIII
T1 construct: EDIII (residues 298-409 in E protein containing a C-terminal human Fc tag); human Fc (C)
Protocol: (GE Healthcare, Port Washington, NY, USA). Briefly, ZIKV EDIII protein or NS2B-NS3 protein was immobilized on a sensor chip (CM5) using the Amine Coupling Kit (GE Healthcare). Serially diluted ST087010 was added as analytes, and HBS-EP with 10% DMSO (10 mM HEPES, 150 mM NaCl, 3 mM EDTA, 0.05% Tween-20, 10% DMSO, pH 7.4) was used as a running buffer. Biacore BK evaluation software (version 1.1) was applied to analyze the data, and the curve was fitted with a 1:1 binding model.

[2] = target: T2, ZIKV full-length envelope (E) protein (Zika virus, UniProt Q32ZE1); test: ELISA binding to ZIKV full-length E protein
T2 construct: ZIKV full-length E (Aviva Systems Biology, San Diego, CA, USA); purchased Aviva Systems Biology
T2 sequence (Q32ZE1 291-790): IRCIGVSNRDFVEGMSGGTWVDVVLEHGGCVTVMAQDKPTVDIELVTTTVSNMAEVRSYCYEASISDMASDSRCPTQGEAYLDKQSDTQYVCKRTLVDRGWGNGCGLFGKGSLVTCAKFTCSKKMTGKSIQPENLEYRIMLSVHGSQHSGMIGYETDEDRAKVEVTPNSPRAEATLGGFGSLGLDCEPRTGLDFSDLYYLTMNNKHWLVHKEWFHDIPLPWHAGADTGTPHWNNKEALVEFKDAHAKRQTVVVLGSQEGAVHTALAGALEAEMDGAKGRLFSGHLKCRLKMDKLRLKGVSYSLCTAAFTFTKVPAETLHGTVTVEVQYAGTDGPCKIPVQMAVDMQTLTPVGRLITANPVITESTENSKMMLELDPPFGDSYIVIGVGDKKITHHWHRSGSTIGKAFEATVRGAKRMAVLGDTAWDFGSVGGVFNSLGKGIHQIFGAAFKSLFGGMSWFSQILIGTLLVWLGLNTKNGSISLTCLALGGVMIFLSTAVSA
Protocol: (§1) Briefly, ELISA plates were coated with each protein (1 μg/ml) at 4°C overnight and were then incubated with blocking buffer containing 2% fat-free milk in PBST (0.05% Tween-20) at 37°C for 2 h. The above compounds, or DMSO control, at serial dilutions were added to the plates and incubated at 37°C for 2 h. After three washes using PBST, the plates were incubated at 37°C for 2 h with ZIKV EDIII-specific human mAb ZKA64-LALA (0.5 μg/ml) (for binding to ZIKV full-length E or EDIII protein), or ZIKV NS2B-NS3-specific mouse sera (for binding to NS2B-NS3 protein). After further washes, the plates were incubated with horseradish peroxidase (HRP)-conjugated anti-human IgG-Fab (1:3,000, Abcam, Cambridge, MS, USA) or anti-mouse IgG (1:3,000, Sigma) antibody at 37°C for 1 h. The plates were incubated with substrate TMB (3,3′,5,5′-tetramethylbenzidine) for 1 min, and the reaction was stopped by addition of 1 N H2SO4. Absorbance at 450 nm (A450 values) was measured by an ELISA microplate reader. Percent binding (% binding) to the E, EDIII, or NS2B-NS3 protein was calculated in the presence or absence of serially diluted compounds using the formula ((1-(E/EDIII/NS2B-NS3-compound)/(E/EDIII/NS2B-NS3))×100), based on which EC50 was calculated using the CalcuSyn program.

[3] = target: T1, ZIKV EDIII protein; test: ELISA binding to ZIKV EDIII protein
Protocol: as §1

[4] = Safety profile in pregnant Ifnar1−/− mice and pups; assay type: in vivo
Protocol: Briefly, groups of 5 pregnant mice (8–12-week-old, E12-14) were i.p. injected with ST087010 (20 or 40 mg/kg of body weight, 200 μl/mouse), or DMSO (negative control), daily for 4 continuous days.

[5] = tested on: DENV-2 human strain V594; test: DENV-2 challenge in Ifnar1−/− mice, flow cytometry titers; assay type: in vivo; settings: 20 mg/kg i.p., 3 dpi
Protocol: Three days after infection, sera and tissues, including the brain, kidney, and heart, were collected and assessed for DENV infection using a flow cytometry assay, as described below. Tissues were freshly homogenized with cold culture medium (EMEM + 2% FBS) and centrifuged at 4°C and 2000 g for 10 min. Serially diluted tissue supernatants and sera were added to C6/36 cells, as described below. DENV titers in tissues or sera were assessed from ~20 mg of tissue samples, or 25 μl of sera, and used for subsequent flow cytometry analysis.
Flow cytometry assay was carried out to analyze DENV-2 titers in the supernatants of homogenized tissues and sera from DENV-2-infected mice collected above. Briefly, homogenized tissue supernatants or sera were added to C6/36 cells (5×10^5 cells/well) pre-seeded in 24-well plates which the culture medium was removed, and the cells were incubated for 1 h (28°C, 5% CO2). After incubation, the cells were washed with PBS, incubated with EMEM containing 2% FBS, and then cultured for 3 days as described above. After further removal of medium, the cells were digested, washed with PBS, and resuspended in FIX/PERM solution (Tonbo Biosciences, San Diego, CA, USA), followed by incubation at 4°C for 1 h in the dark. The cells were then sequentially incubated with mouse anti-flavivirus mAb 4G2 (2 μg/ml) at 37°C for 1 h and FITC-labeled anti-mouse IgG (0.5 mg/ml, BioLegend, San Diego, CA, USA) at 37°C for 30 min, followed by analysis using a FACScan flow cytometer and Summit software. Viral titers (infectious units/ml or infectious units/g) were calculated using the formula ((% of infected cells)×(total number of cells)×(dilution factor)/(amount of inoculum added to cells)).

[6] = in vitro; assay type: cell-based; settings: rhesus monkey
Protocol: (§2) Briefly, compounds at 2-fold serial dilutions were added to the respective cells (2.0×10^4/well) pre-seeded in 96-well plates. The cells were cultured at 37°C in the presence of 5% CO2 for 3 days, […] incubated with CCK8 solution, followed by measurement of absorbance at 450 nm (A450 value), using a microplate reader (Infinite F200PRO, Tecan, Morrisville, NC, USA). CC50 of compounds was calculated using the CalcuSyn program.

[7] = tested on: Vero E6 cells; test: Cytotoxicity, Cell Counting Kit-8, Vero E6 cells; assay type: cell-based; settings: African green monkey, 3 days
Protocol: as §2

[8] = Cytotoxicity, Cell Counting Kit-8, Vero E6 cells; assay type: cell-based; settings: African green monkey, CC50 Vero E6
Protocol: as §2

[9] = tested on: DENV-1-V1792; test: Plaque assay, inhibition of DENV-1 infection in LLC-MK2 cells; assay type: cell-based; settings: Dengue virus, DENV1
[10] = tested on: ZIKV human strain PRVABC59; test: Plaque assay, inhibition of ZIKV infection (strain PRVABC59); assay type: cell-based; settings: Zika virus, Vero C1008; plaque assay, Vero E6 cells, human strain; read-out: IC50 PRVABC59
Protocol: (§3) After removal of the unbound compounds by centrifugation (after addition of 3% PEG-6000), ZIKV was incubated with Vero E6 cells in 24-well plates at 37°C for 1 h. The cells were then washed with PBS, overlaid with DMEM containing 1% carboxymethyl cellulose and 2% FBS, and cultured at 37°C for 4–5 days, followed by being stained with 0.5% crystal violet. […] Plaques in each well were calculated, and IC50 of compounds for each compound was calculated using the CalcuSyn computer program.

[11] = tested on: ZIKV human strain IbH 30656; test: Plaque assay, inhibition of ZIKV infection (strain IbH 30656); assay type: cell-based; settings: Zika virus, Vero C1008; plaque assay, Vero E6 cells, human strain; read-out: IC50 IbH 30656
Protocol: as §3

[12] = C6/36 cells, flow cytometry, representative image

T1 sequence (A0A024B7W1 588-699): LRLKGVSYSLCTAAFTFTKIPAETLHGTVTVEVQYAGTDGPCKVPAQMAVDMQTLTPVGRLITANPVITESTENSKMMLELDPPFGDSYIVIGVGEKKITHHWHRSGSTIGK

In the case of Cc1cc2c(C(C)C)c(O)c(O)c(/C=N/n3c(=O)[nH][nH]c3=O)c2c(O)c1-c1c(C)cc2c(C(C)C)c(O)c(O)c(/C=N/n3c(=O)[nH][nH]c3=O)c2c1O [ST087010], the Kd [1] is reported as 4.95 µM, the EC50 [2] is reported as 6.47 µM and the EC50 [3] is reported as 6.13 µM. For the same compound, the “Histopathology of liver, spleen, kidney, and brain of mothers and pups” value ([4]; 20 or 40 mg/kg, compared to DMSO) was “did not present pathological changes”, the “Inflammation or cell infiltration in tissues” value ([4]; low and high doses (20 and 40 mg/kg)) was “no inflammation or cell infiltration” and the “Serum ALT and creatinine levels vs DMSO” value ([4]; pregnant mice, 20 mg/kg, 1 day after injection) was “no significant difference”. The “Serum ALT and creatinine levels” value ([4]; pregnant mice, 20 or 40 mg/kg, before injection and 4 h, 3 or 5 days after last injection) was “no significant differences”, the “Numbers of infected cells (viral titers) in the brain, kidney, heart, and sera” value ([5]; DENV-2 V594 2×10^6 PFU, compared to gossypol and DMSO) was “significantly reduced” and the “DENV-2 in brain, percentage of infected cells” value [5, 12] was 1.1%. The “DENV-2 in heart, percentage of infected cells” value [5, 12] was 1.0%, the “DENV-2 in kidney, percentage of infected cells” value [5, 12] was 3.1% and the “DENV-2 in sera, percentage of infected cells” value [5, 12] was 1.3%. The CC50 at 3 days [6] was 47.2 ± 1.35 µM, the CC50 [7] was 49.6 ± 1.83 µM and the CC50 at 3 days [8] was 49.6 µM. The IC50 [9] was 3.01 ± 0.11 µM, the IC50 [10] was 2.4 µM and the IC50 [11] was 2.9 µM.
